Experimental data from patent US20080132536A1, “PYRAZOLO [3,4-B] PYRIDINE COMPOUNDS, AND THEIR USE AS PDE4 INHIBITORS” (Glaxo Group Limited, priority 2003, published 2008).

How the values were obtained:
[1] = Description: Micronisation usually involves subjecting the compound/salt to collisional and/or abrasional forces in a fast-flowing circular or spiral/vortex-shaped airstream often including a cyclone component.
In particle size measurements, D90, D50 and D10 respectively mean that 90%, 50% and 10% of the material is less than the micron size specified. D50 is the median particle size. DV90, DV50 and […] respectively mean that 90%, 50% and 10% by volume of the material is less than the micron size specified. DM90, DM50 and DM10 respectively mean that 90%, 50% and 10% by weight of the material is less than the micron size specified.
Laser diffraction measurement of particle size can use a dry method (wherein a suspension of the compound/salt in an airflow crosses the laser beam) or a wet method [wherein a suspension of the compound/salt in a liquid dispersing medium, such as isooctane or (e.g. if compound is soluble in isooctane) 0.1% Tween 80 in water, crosses the laser beam]. With laser diffraction, particle size is preferably calculated using the Fraunhofer calculation; and/or preferably a Malvern Mastersizer or Sympatec apparatus is used for measurement.
• Purpose: To micronise Example 73, 75, 98, 283, 304, 306, 307, 308, 309, 310, 311, 312, 313, 314 or 314A or 333 (described hereinafter), usually in an amount of approximately 600-1000 mg thereof, using a Jetpharma MC 1 micronizer. • The parent (unmicronised) and micronised materials are analyzed for particle size by laser diffraction and crystallinity by PXRD.
The micronizer is assembled. The narrow head of the venturi inlet is positioned below and slightly forward of the material inlet port and is measured with a micro-caliper to make sure that it is inserted correctly. The ring (R) and venturi (V) pressures are adjusted according to the values specified in the experimental design (refer to experimental section below) by adjusting the valves on the pressure gauges on the micronizer. The setup is checked for leakage by observing if there is any fluctuation in the reading of the pressure gauges.
Balance performance is checked with calibration weights. Specified amount of the parent material (see e.g. section on experimental run Procedure 1 for Example 307) is fed into the input container of the micronizer using a spatula. The input container plus material is weighed. The equipment pressure is monitored during the micronization process.
Upon completion of the micronising run, the nitrogen supply is shut off and the micronised material is allowed to settle into the micronizer container. The micronised powder in the micronizer container (collection vessel) and the cyclone (above the recovery vessel) are collected together into a pre-weighed and labelled collection vial. The weight of the micronised material is recorded. The input container is re-weighed in order to calculate the amount of input material by difference. The micronizer is disassembled and residual PDE4 compound on the micronizer inner surface is rinsed with 70/30 isopropyl alcohol/water and collected into a flask. The micronizer is then thoroughly cleaned in a Lancer washing machine and dried before subsequent runs are performed.

conscious ferret = experiment: In Vivo Assay 4: therapeutic index of orally-administered PDE4 inhibitors in the conscious ferret (LPS-induced pulmonary neutrophilia and emesis); parameters: species or system ferret (Mustela Pulorius Furo); details: p.o.
Experimental: PDE4 inhibitors are prepared for oral (p.o.) administration by dissolving in a fixed volume (ca. 1 ml) of acetone and then adding cremophor to ca. 20% of the final volume. Acetone is evaporated by directing a flow of nitrogen gas onto the solution. Once the acetone is removed, the solution is made up to final volume with distilled water. LPS is dissolved in phosphate buffered saline.
Male ferrets (Mustela Pulorius Furo, weighing 1-2 kg) are transported and allowed to acclimatise for not less than 7 days. The diet comprises SDS diet C pelleted food given ad lib with Whiskers™ cat food given 3 times per week. The animals are supplied with pasteurised animal grade drinking water changed daily.
PDE4 inhibitors are administered orally (p.o.), using a dose volume of ca. 1 ml/kg. […] The animals are constantly observed and any emetic episodes (retching and vomiting) or behavioural changes are recorded. […]
About thirty minutes after oral dosing with compound or vehicle control, the ferrets are placed into sealed perspex containers and exposed to an aerosol of LPS (ca. 30 μg/ml=ca. 30 ug/ml) for ca. 10 minutes. […] All emetic episodes and behavioural changes are recorded.
About six hours after LPS exposure the animals are killed by overdose of sodium pentobarbitone administered intraperitoneally. […] From this, the total number of neutrophils in the BAL sample is determined. […]

[2] = micronised, V = 5 to 7 bar, R = 3 to 4 bar

Compound	Particle Size Data D10 (micronised material) [1, 2]	Particle Size Data D50 (micronised material) [1, 2]	Particle Size Data D90 (micronised material) [1, 2]	Particle Size Data D10 (unmicronised material) ([1]; unmicronised)	Particle Size Data D50 (unmicronised material) ([1]; unmicronised)	Particle Size Data D90 (unmicronised material) ([1]; unmicronised)	D20 for emesis (dose giving 20% incidence of emesis) (conscious ferret)	D50 for ferret neutrophilia (dose giving 50% inhibition of LPS-induced pulmonary neutrophilia) (conscious ferret)
CCC(NC(=O)c1cnc2c(cnn2CC)c1NC1CCOCC1)c1ccc(C)cc1C.Cl (single isomer, unassigned; enantiomer 2) [Example 307, N-[1-(2,4-dimethylphenyl)propyl]-1-ethyl-4-(tetrahydro-2H-pyran-4-ylamino)-1H-pyrazolo[3,4-b]pyridine-5-carboxamide (Enantiomer 2) hydrochloride]	D10 = 0.84 microns	D50 = 1.56 microns	D90 = 2.74 microns	D10 = 2.48 microns	D50 = 8.98 microns	D90 = 24.14 microns		
O=C(Nc1c(Cl)cncc1Cl)c1ccc(OC(F)F)c(OCC2CC2)c1 [roflumilast]							about 0.46 mg/kg	about 0.42 mg/kg
